Data reported in PubChem BioAssay AID1159558 (GlaxoSmithKline (GSK), 2015).
Calls of active or inactive are those of the source.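 How the source made its calls: active means IC50 against T. cruzi CYP51 below a set limit; inactive means the rest.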

Biological target: Sterol 14-alpha demethylase (Trypanosoma cruzi (strain CL Brener)) (UniProt Q7Z1V1)
Experiment: T. cruzi sterol 14-alpha demethylase inhibition – biochemical, recombinant enzyme, mechanism study for T. cruzi antiparasitic project, dose response (AID 1159558);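 further: enzyme in bacterial membranes with Anopheles gambiae CYP reductase and cytochrome b5 partners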
Conditions: recombinant T. cruzi CYP51, BOMCC fluorescence

Sequence of Sterol 14-alpha demethylase (Trypanosoma cruzi (strain CL Brener)) (Q7Z1V1 whole entry, looked up): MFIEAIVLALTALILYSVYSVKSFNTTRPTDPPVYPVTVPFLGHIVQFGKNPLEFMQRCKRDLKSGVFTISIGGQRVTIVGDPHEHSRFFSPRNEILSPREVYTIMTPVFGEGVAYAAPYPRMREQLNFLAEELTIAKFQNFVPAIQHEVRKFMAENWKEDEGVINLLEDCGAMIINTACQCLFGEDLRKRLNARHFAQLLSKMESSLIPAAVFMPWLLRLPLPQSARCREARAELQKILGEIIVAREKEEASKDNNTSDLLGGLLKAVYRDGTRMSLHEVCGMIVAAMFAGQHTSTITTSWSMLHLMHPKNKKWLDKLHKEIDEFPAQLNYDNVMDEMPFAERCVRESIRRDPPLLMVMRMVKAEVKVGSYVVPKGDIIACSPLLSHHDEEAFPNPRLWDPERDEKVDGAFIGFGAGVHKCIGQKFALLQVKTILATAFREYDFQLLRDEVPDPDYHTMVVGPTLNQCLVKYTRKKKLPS

Compound	IC50
COc1cc(-c2noc(CC#N)n2)ccc1OC(F)F	100 µM
O=C(NCCc1nc(-c2ccc(F)c(F)c2)n[nH]1)C1CCCCC1	25 µM
O=C1NCCn2ccc(Nc3nc(NC4CCC(O)CC4)ncc3Cl)c21 (stereo not drawn)	> 100 µM (inactive)
CC(C)C[C@H](NC(=O)c1csc(-c2cccs2)n1)C(=O)NC1(C#N)CC1	> 100 µM (inactive)
Cc1ccc(NC(=O)c2ccc(Cl)c(NC(=O)c3ccc([N+](=O)[O-])cc3)c2)cc1	> 100 µM (inactive)
Cc1cc(N(C)C)nc(Nc2ccccc2C)n1	> 100 µM (inactive)
CCOc1ccccc1C(=O)Nc1nnc(-c2ccc3c(c2)OCO3)s1	> 100 µM (inactive)
Oc1cccnc1-c1n[nH]c(Cc2ccccc2)n1	> 100 µM (inactive)
COc1ccc(NS(=O)(=O)c2cccc(NC(=O)c3cc(F)cc(F)c3)c2)cc1	> 100 µM (inactive)
CNc1cc(Cn2c(C(=O)c3cc(C)cc(Cl)c3)c(C(C)C)c(=O)[nH]c2=O)ccn1	0.032 µM
CC(CNS(=O)(=O)c1ccc(OC(F)F)cc1)c1ccc(NC(=O)c2ccncc2)cc1 (stereo not drawn)	0.05 µM
CC1CCCCN1C(=O)NCCc1coc(-c2ccc(F)cc2)n1 (stereo not drawn)	> 100 µM (inactive)
NCc1csc(Nc2cc(Oc3ccccc3)ncn2)n1	0.32 µM
Cc1cn[nH]c1C1CCCN(Cc2nc3ccccc3n2C)C1 (stereo not drawn)	1.3 µM
Cc1c(CNC(=O)c2ccc(Cn3cc(Cl)c([N+](=O)[O-])n3)cc2)cnn1C	> 100 µM (inactive)
Cc1nn(C)c(Cl)c1CN(Cc1cccnc1)Cc1ccsc1	0.063 µM
COc1ccc(CNc2nsc3ccccc23)cc1OC	13 µM
COc1ccc(C(=O)N2CCC(Nc3cccnc3)C2)c(OC)n1 (stereo not drawn)	0.063 µM
c1cc(-c2ncc(-c3ccn[nH]3)s2)ccn1	0.04 µM
Cc1cc(N2CCc3ccccc3C2)nc(Nc2ccc(S(=O)(=O)N3CCOCC3)cc2)n1	> 100 µM (inactive)
COc1ccc(CN(C)Cc2ccncc2)cc1-c1ccc(S(=O)(=O)NC2CCC2)s1	0.079 µM
COc1cc(OC)cc(C(=O)N[C@@H](CC(C)C)C(=O)NC2(C#N)CC2)c1	> 100 µM (inactive)
O=C(NC1CCN(C2Cc3ccc(NS(=O)(=O)c4cc(F)cc(F)c4)cc3C2)CC1)C1CC1 (stereo not drawn)	50 µM
COc1ccc(-c2ccc3nnc(-c4ccc(O)c(OC)c4)n3c2)cn1	> 100 µM (inactive)

Compound	IC50
Fc1ccc(Nc2nc(-c3ccccn3)cs2)cc1	16 µM
COc1ccc(C(=O)Nc2cc(C(F)(F)F)ccc2N2CCOCC2)c(OC)c1	> 100 µM (inactive)
CCOc1ccc(CN(C)Cc2nc(N)nc(Nc3ccc(C)cc3)n2)cc1	16 µM
COc1ccc(S(=O)(=O)NC(C)C)cc1Nc1ncc(-c2cccc(F)c2)cn1	> 100 µM (inactive)
COc1cccc2sc(CN(C)C(=O)C3CNCCN3c3ccc(F)cc3)c(C)c12 (stereo not drawn)	0.25 µM
Cc1nn(-c2nc(N)nc(-c3ccccn3)n2)c(N)c1-c1ccccc1	> 100 µM (inactive)
Cc1nc(N2CCC(C(=O)N3CCC(O)(c4cccnc4)CC3)CC2)nc2ccc(C(C)C)cc12	0.13 µM
CC(C)N(C(=O)CN1C(=O)C(N)C(=O)N(c2ccccc2)c2ccccc21)c1ccccc1 (stereo not drawn)	0.32 µM
CCCCNc1nccc(-c2c(-c3ccc(F)cc3)nn3c(N4CCOCC4)cccc23)n1	> 100 µM (inactive)
Cn1nc(-c2ccc(NC(=O)Cc3ccccc3Cl)cc2)c2c(N)ncnc21	63 µM
O=C(Nc1cccc(F)c1)N1CCC(Oc2cccc(-c3cccnc3)c2)CC1	0.16 µM
c1ccc(CNc2cccc3ccncc23)cc1	0.1 µM
Cn1c(CN2CCN(c3ncc(C(F)(F)F)cc3Cl)CC2)nc2ccncc21	0.079 µM
CNS(=O)(=O)c1ccccc1Nc1nc(Nc2ccnn2C)ncc1Cl	32 µM
NS(=O)(=O)c1ccc(CNC(=O)c2ccc([N+](=O)[O-])s2)cc1	40 µM
O=C(CCCn1cnc([N+](=O)[O-])n1)Nc1cccc(Cl)c1	50 µM
CNC(=O)C1Cc2ccccc2N1C(=O)Cc1ccccc1 (stereo not drawn)	> 100 µM (inactive)
O=C(NCc1ccncc1)c1ccccc1N1CCCN(C(=O)Cc2ccc(F)c(F)c2)CC1	0.079 µM
Cc1ccc(C)c(-n2nnnc2Sc2nc([N+](=O)[O-])nn2C)c1	> 100 µM (inactive)
COc1cccc(-c2c(C)nn(-c3nc(N)nc(-c4ccccn4)n3)c2N)c1	> 100 µM (inactive)
C[C@@H](Oc1cc(-n2cnc3ccc(O[C@H]4CCNC4)cc32)sc1C(N)=O)c1ccccc1Cl	1.3 µM
O=C(CCCNC(=O)c1ccc(Cl)cc1)Nc1nc(-c2ccccn2)cs1	3.2 µM
CN(CC1CCCO1)S(=O)(=O)c1ccc(C(=O)Nc2nc(-c3ccccn3)cs2)cc1 (stereo not drawn)	7.9 µM
O=C(CN(Cc1ccccn1)Cc1ccccn1)NCc1ccc(-c2csnn2)cc1	40 µM
